The record followed here is PMC6568410, “A scorpion venom peptide derivative BmKn‒22 with potent antibiofilm activity against Pseudomonas aeruginosa” (PLoS ONE, 2019).

In one test the test system is P. aeruginosa PAO1. In words: MIC, broth microdilution. In kind it is cell-based, Pseudomonas aeruginosa. As to conditions: broth microdilution in LB broth, 10^6 CFU/mL, 37 °C, 24 h; printed only as half of the MIC. On the procedure: MIC of azithromycin against P. aeruginosa was determined by using broth microdilution assay according to the protocol previously described with some modifications. Twofold serial dilutions of azithromycin (AZM; Sigma, St. Louis, USA) were prepared in LB broth in the wells of flat-bottomed 96-well microtiter plates (Nunc). Aliquots of P. aeruginosa PAO1 suspension at a final concentration of 10^6 CFU/mL was added to the wells of flat-bottomed 96-well microtiter plates (Nunc).

Test [1] relates to P. aeruginosa PAO1 biofilms. Description: Antibiofilm activity of BmKn-22 and azithromycin alone or in combination, crystal violet. It is filed as cell-based, Pseudomonas aeruginosa. On the procedure: The effect of BmKn‒2 peptide and derivatives on biofilm formation of P. aeruginosa PAO1 was determined according to the method published previously with some modifications. Briefly, 100 μL of the test peptides was plated into the wells of flat-bottomed 96-well microtiter plates (Nunc™, Roskilde, Denmark) at the final concentrations of 200 ‒ 800 μM. Aliquots of the P. aeruginosa PAO1 suspension were then inoculated to the wells of 96-well microtiter plates to obtain a final concentration of 10^6 CFU/mL. Culture without the test peptides was used as the untreated control. After incubation at 37 ^OC for 24 h without agitation, planktonic cells were removed and the plates were gently rinsed twice with phosphate buffered saline (PBS) pH 7.4. Biofilms were then stained with 0.1% crystal violet solution (Merck, Darmstadt, Germany) for 10 minutes at room temperature. Excess stains were rinsed off with PBS pH 7.4 and the plates were left dry at 37 ^OC for 2 h. Subsequently, biofilm biomass was solubilized with 30% acetic acid and the optical density (OD) measured at 550 nm using a microplate reader (BioTek Synergy HT).
Briefly, P. aeruginosa PAO1 suspension (10^6 CFU/mL, final concentration) was added to the wells of flat-bottomed 96-well microtiter plates (Nunc) containing the test peptide, azithromycin (AZM; Sigma) alone or in combinations. […] Biofilm formation was employed by measuring biofilm biomass stained with crystal violet as a protocol described in previous section.

For the compound `CC[C@H]1OC(=O)[C@H](C)[C@@H](O[C@H]2C[C@@](C)(OC)[C@@H](O)[C@H](C)O2)[C@H](C)[C@@H](O[C@@H]2O[C@H](C)C[C@H](N(C)C)[C@H]2O)[C@](C)(O)C[C@@H](C)CN(C)[C@H](C)[C@@H](O)[C@]1(C)O` [AZM, azithromycin, reference compound], in the test on P. aeruginosa PAO1, the “sub-MIC (1/2 of MIC) dose” value amounted to 64 µg/mL. Further, the “Biofilm biomass (% control)” value in test [1] (azithromycin alone 64 µg/ml (1/2 MIC), 24 h, 37 °C, crystal violet, mean of 3 independent experiments) is 100.000 % control; in test [1] (azithromycin alone 64 µg/ml, Exp. 1) it was 100.000 % control; in test [1] (azithromycin alone 64 µg/ml, Exp. 2) it was 100.000 % control; in test [1] (azithromycin alone 64 µg/ml, Exp. 3), 100.000 % control. Also, the “biofilm inhibition by azithromycin alone” value in test [1] (sub-MIC dose (1/2 MIC, 64 µg/mL), result in words) is listed as “significant biofilm inhibition was not evident”.
